In patent US20250127863A1, “ANTIMICROBIAL PEPTIDE FOR ONYCHOMYCOSIS” (CBMR SCIENTIFIC NANOSCIENCE B.V., priority 2019, published 2025):
Where two headings read alike, the source gives them in different places. No end group written: not given here.

How the values were obtained:
C. lusitaniae CMC-1944 = assay: MIC90 growth inhibition; format: cell-based, Candida lusitaniae; details: RPMI 1640 one-fourth strength
Experimental: (§1) The minimum inhibitory concentration (MIC) value is defined as the lowest sample concentration that inhibited growth. In the Examples, the MIC90 value is presented, which MIC90 values are determined according to established methods known to the person with the skills in the relevant art. Experiments; 1×10E5 CFU of various strains/ml were incubated for 24-48 h at 37° C. in 4× diluted medium of RPMI 1640 with the indicated concentrations of antimicrobial peptide hLF(1-11) [SEQ ID NO: 3]. As controls various strains cells were incubated for 24-48 h at 37° C. with no agent (antimicrobial peptide), and subsequently, growth of the microbial organism (e.g. yeast, bacterium) was monitored by using spectrophotometry with a spectrophotometer at 620 nm. […] ND=Not done. Representative single assay data are listed rather than a range, for clarity reasons and for ease of comparison of peptide efficacy. The MIC was calculated as the lowest antibiotic (antimicrobial peptide) concentration at which growth of the assessed yeast or bacterium (microbe) was inhibited (inhibitory concentration IC90).

C. metapsilosis = assay: MIC90 growth inhibition; format: cell-based, Candida metapsilosis; details: RPMI 1640 one-fourth strength
Experimental: as §1

Sclerotium rolfsii = assay: IC50 growth inhibition; format: cell-based
onychomycosis [1] = format: in vivo, human; details: for no results observed, number of patients: 3-5 months treatment of the fungal nail
Experimental: The anti-fungal activity of the antimicrobial peptide hLF1-11 (GRRRRSVQWCA) [SEQ ID NO: 3] was tested in a clinical trial with human subjects who suffered from at least one nail apparently with onychomycosis.
In the clinical trial a total of 53 patients with different (severe) clinical signs of onychomycosis were included.

onychomycosis [2] = assay: Application of the composition by human subjects (Example 1); format: in vivo
Experimental: The concentration of the antimicrobial peptide in the composition used for the treatment of onychomycosis by human subjects, was 30 mg/l ([…]).
The composition used comprises the antimicrobial peptide hLF1-11 (GRRRRSVQWCA) [SEQ ID NO: 3] and is a clear colorless liquid in a (glass) bottle with a dropper to facilitate application to the nail. […] The antimicrobial peptide is completely biodegradable.
The composition is applied twice a day to the affected nail and cuticle, preferably in the morning and in the evening. Hold the tip of the dropper above the nail. Avoid direct contact between the dropper providing the solution and the infected nail to keep liquid clean. Squeeze the tube gently and drop the drop onto the cuticle/proximal fold. It is preferred to cover the whole nail with a thin layer of the solution. In particular cases it is important that the solution is also applied under the edge of the affected nail (on the distal nail bed) e.g. with a cotton swab, in particular when the infection started from there. Allow the nail to dry for a few minutes after application. The treatment duration varies depending on the severity of the infection; in many cases 3-6 months of treatment may be necessary. For optimal results, continue the treatment until a new healthy nail has fully grown. […] Reference is made to FIG. 1.

C. tropicalis CBS-94 = assay: MIC90 growth inhibition; format: cell-based, Candida tropicalis; details: RPMI 1640 one-fourth strength
Experimental: as §1

C. tropicalis (LUMC) = assay: MIC90 growth inhibition; format: cell-based, Candida tropicalis; details: RPMI 1640 one-fourth strength
Experimental: as §1

C. tropicalis CMC-2041 = assay: MIC90 growth inhibition; format: cell-based, Candida tropicalis; details: RPMI 1640 one-fourth strength
Experimental: as §1

C. tropicalis spp. = assay: MIC90 growth inhibition; format: cell-based, Candida tropicalis; details: RPMI 1640 one-fourth strength
Experimental: as §1

Candida parapsilosis = format: cell-based
Experimental: as §1
For 3 patients A, B, C who were treated with the low concentration of antimicrobial peptide, and for which now clinical improvement was established, it was established that one patient presented with a positive culture (Candida parapsilosis). […] See also Tables 1-3 in Example 4, here below. […]

C. auris = assay: MIC90 growth inhibition; format: cell-based, Candida auris; details: RPMI 1640 one-fourth strength
Experimental: as §1

Rhizoctonia solani = assay: IC50 growth inhibition; format: cell-based
C. kefyr = assay: MIC90 growth inhibition; format: cell-based, Candida kefyr; details: RPMI 1640 one-fourth strength
Experimental: as §1

C. parapsilosis CBS-604 = assay: MIC90 growth inhibition; format: cell-based, Candida parapsilosis; details: RPMI 1640 one-fourth strength
Experimental: as §1

C. parapsilosis CBS #57 = assay: MIC90 growth inhibition; format: cell-based, Candida parapsilosis; details: RPMI 1640 one-fourth strength
Experimental: as §1

C. parapsilosis CMC-2039 = assay: MIC90 growth inhibition; format: cell-based, Candida parapsilosis; details: RPMI 1640 one-fourth strength
Experimental: as §1

C. haemulonii = assay: MIC90 growth inhibition; format: cell-based, Candida haemulonii; details: RPMI 1640 one-fourth strength
Experimental: as §1

Hypercrealis spp. = format: cell-based; details: Hypercrealis spp. strain from nail samples of patients D, E
Experimental: as §1
(§2) For two patients D, E who were treated with a solution comprising the high concentration of the antimicrobial peptide, in their nail samples strains of Trichophyton interdigitalis and Hypercrealis spp. were determined. […]

[3] = system: Trichophyton interdigitalis; format: cell-based
Experimental: as §1, §2

Phoma exigua = assay: IC50 growth inhibition; format: cell-based

In the case of “GRRRRSVQWCA [hLF1-11, Gly Arg Arg Arg Arg Ser Val Gln Trp Cys Ala]”, the “Inhibitory concentration MIC (MIC90)” value (C. lusitaniae CMC-1944) is reported as “MIC = 50 μg/mL”, the “Inhibitory concentration MIC (MIC90)” value (C. metapsilosis) is reported as “MIC = 25 μg/mL” and the “Inhibitory concentration IC50” value (Sclerotium rolfsii) is reported as “IC50 = 231 μg/mL”. The “effect in patients D, E who had shown no effect at the high concentration” value (onychomycosis [1]; 100 mg/L, after 3 months of treatment) was “positive effect”, the “time after which improvement was observed for the patients” value (onychomycosis [1]; High concentration solution (33.3 mg/L)) was 3-6 months and the “positive effect of the treatment observed, number of patients” value (onychomycosis [1]; Low concentrate (3.3 mg/L antimicrobial peptide) in aqueous acetic acid 0.01 volume %) was 18 patients. For the same sequence, the “time after which improvement was observed for the patients” value (onychomycosis [1]; Low concentration solution (3.3 mg/L)) was 4-7 months, the “positive effect of the treatment observed, number of patients” value (onychomycosis [1]; high concentrate (33.3 mg/L antimicrobial peptide) in aqueous acetic acid 0.01 volume %) was 22 patients and the “no results observed, number of patients” value (onychomycosis [1]; high concentration) was 2 patients. For the same sequence, the “adverse side effects (patients' remarks)” value (onychomycosis [1]; human, in vivo) was “No adverse side effects”, the “no results observed, number of patients” value (onychomycosis [1]; low concentration) was 3 patients and the “positive effect of the nail treatment” value (onychomycosis [1]; panel of 53 patients, aqueous solution comprising the antimicrobial peptide) was 88.64%. The “patients with visual improvement of the nails” value (onychomycosis [1]; patients in the clinical trial) was “more than 85%”, the “positive result obtainable for all patients included in the clinical trial” value (onychomycosis [1]; when the concentration of the antimicrobial peptide is 100 mg/L) was 100% and the “recurrent infection in treated patients” value (onychomycosis [2]; after 4 months or even longer) was “do not show signs of recurrent infection”. The “time to first visible improvements” value (onychomycosis [2]; twice daily application, 30 mg/l composition) was “two to four”, the “Inhibitory concentration MIC (MIC90)” value (C. tropicalis CBS-94; C. tropicalis CBS-94, second listing) was “MIC = 50 μg/ml” and the “Inhibitory concentration MIC (MIC90)” value (C. tropicalis CBS-94) was “MIC = 50 μg/mL”. For the same sequence, the “Inhibitory concentration MIC (MIC90)” value (C. tropicalis (LUMC)) was “MIC = 25 μg/mL”, the “Inhibitory concentration MIC (MIC90)” value (C. tropicalis (LUMC); second listing) was “MIC = 25 μg/ml” and the “Inhibitory concentration MIC (MIC90)” value (C. tropicalis CMC-2041; C. tropicalis CMC-2041, second listing) was “MIC = 50 μg/ml”. For the same sequence, the “Inhibitory concentration MIC (MIC90)” value (C. tropicalis CMC-2041) was “MIC = 50 μg/mL”, the “Inhibitory concentration MIC (MIC90)” value (C. tropicalis spp.) was “MIC = 12.5-100 μg/mL” and the MIC90 value (Candida parapsilosis) was 25 to 50 µg/mL. For the same sequence, the “Inhibitory concentration MIC (MIC90)” value (C. auris) was “MIC = 12.5-25 μg/ml”, the “Inhibitory concentration IC50” value (Rhizoctonia solani) was “IC50 = 121 μg/mL” and the “Inhibitory concentration MIC (MIC90)” value (C. kefyr) was “MIC = 2.5-12.5 μg/ml”. The “Inhibitory concentration MIC (MIC90)” value (C. parapsilosis CBS-604; C. parapsilosis CBS-604, second listing) was “MIC = 25 μg/ml”, the “Inhibitory concentration MIC (MIC90)” value (C. parapsilosis CBS-604) was “MIC = 25 μg/mL” and the “Inhibitory concentration MIC (MIC90)” value (C. parapsilosis CBS #57) was “MIC = 25-50 μg/mL”. The “Inhibitory concentration MIC (MIC90)” value (C. parapsilosis CMC-2039; C. parapsilosis CMC-2039, second listing) was “MIC = 25 μg/ml”, the “Inhibitory concentration MIC (MIC90)” value (C. parapsilosis CMC-2039) was “MIC = 25 μg/mL” and the “Inhibitory concentration MIC (MIC90)” value (C. haemulonii) was “MIC = 25 μg/mL”. The MIC90 value (Hypercrealis spp.) was 50 µg/mL, the MIC90 value [3] was 50 µg/mL and the “Inhibitory concentration IC50” value (Phoma exigua) was “IC50 = 821 μg/mL”.
